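Compound exposure: 48 hours, 5 concentrations, 96-well plates. TGI marks complete inhibition of growth.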
How the values were obtained:
Test in all cases: DTP human tumour cell line panel, 48 h
[1] = test system: SK-MEL-2 melanoma
[2] = test system: NCI/ADR-RES ovarian
[3] = test system: SW-620 colon
[4] = test system: NCI-H522 lung
[5] = test system: HT29 colon
[6] = test system: UACC-257 melanoma
[7] = test system: EKVX NSCLC
[8] = test system: UACC-62 melanoma
[9] = test system: OVCAR-5 ovarian
[10] = test system: CAKI-1 renal
[11] = test system: RXF 393 renal
[12] = test system: HS 578T breast
[13] = test system: LOX IMVI melanoma
[14] = test system: HOP-92 NSCLC
[15] = test system: OVCAR-3 ovarian
[16] = test system: NCI-H460 lung
[17] = test system: SF-268 CNS
[18] = test system: CCRF-CEM leukemia
[19] = test system: A498 renal
[20] = test system: 786-0 renal
[21] = test system: UO-31 renal
[22] = test system: MDA-MB-231 breast
[23] = test system: SK-OV-3 ovarian
[24] = test system: OVCAR-8 ovarian
[25] = test system: M14 melanoma
[26] = test system: K-562 leukemia
[27] = test system: MOLT-4 leukemia
[28] = test system: KM12 colon
[29] = test system: A549 NSCLC
[30] = test system: SN12C renal
[31] = test system: T-47D breast
[32] = test system: SF-295 CNS
[33] = test system: BT-549 breast
[34] = test system: MALME-3M melanoma
[35] = test system: ACHN renal
[36] = test system: TK-10 renal
[37] = test system: NCI-H226 lung
[38] = test system: COLO 205 colon
[39] = test system: RPMI-8226 leukemia
[40] = test system: HCC-2998 colon
[41] = test system: MDA-N
[42] = test system: HCT-15 colon
[43] = test system: MCF7 breast
[44] = test system: DU-145 prostate
[45] = test system: HCT-116 colon
[46] = test system: MDA-MB-435
[47] = test system: SK-MEL-5 melanoma
[48] = test system: U251 CNS
[49] = test system: SNB-19 CNS
[50] = test system: IGROV1 ovarian
[51] = test system: SF-539 CNS
[52] = test system: SR leukemia
[53] = test system: SNB-75 CNS
[54] = test system: SK-MEL-28 melanoma
[55] = test system: HOP-62 NSCLC
[56] = test system: PC-3 prostate
[57] = test system: OVCAR-4 ovarian
[58] = test system: HL-60(TB) leukemia
[59] = test system: NCI-H23 lung
[60] = test system: LXFL 529 NSCLC
[61] = test system: DLD-1 colon
[62] = test system: DMS 114 small cell lung
[63] = test system: KM20L2 colon
[64] = test system: HOP-18 NSCLC
[65] = test system: M19-MEL melanoma

Q: Which TGI [1] does the source give for `O=[N+]([O-])c1ccc(NN=C2c3ccccc3Cc3ccccc32)c([N+](=O)[O-])c1` here?
A: > 43.4 µM

Q: What about the TGI [2] of the same molecule?
A: > 100 µM

Q: And the TGI [3]?
A: > 100 µM

Q: What about the TGI [4] of the same molecule?
A: 7.97 µM

Q: And the TGI [5]?
A: 22.2 µM

Q: What about the TGI [6] of the same molecule?
A: > 100 µM

Q: What about the TGI [7] of the same molecule?
A: > 100 µM

Q: What about the TGI [8] of the same molecule?
A: > 100 µM

Q: What about the TGI [9] of the same molecule?
A: > 100 µM

Q: And the TGI [10]?
A: > 100 µM

Q: And the TGI [11]?
A: > 100 µM

Q: What about the TGI [12] of the same molecule?
A: > 80.4 µM

Q: And the TGI [13]?
A: > 100 µM

Q: What about the TGI [14] of the same molecule?
A: > 100 µM

Q: What about the TGI [15] of the same molecule?
A: 5.19 µM

Q: What about the TGI [16] of the same molecule?
A: > 100 µM

Q: What about the TGI [17] of the same molecule?
A: > 100 µM

Q: And the TGI [18]?
A: 18.2 µM

Q: What about the TGI [19] of the same molecule?
A: > 100 µM

Q: What about the TGI [20] of the same molecule?
A: > 100 µM

Q: What about the TGI [21] of the same molecule?
A: > 100 µM

Q: And the TGI [22]?
A: > 100 µM

Q: What about the TGI [23] of the same molecule?
A: > 100 µM

Q: And the TGI [24]?
A: > 100 µM

Q: And the TGI [25]?
A: > 100 µM

Q: What about the TGI [26] of the same molecule?
A: > 100 µM

Q: And the TGI [27]?
A: > 100 µM

Q: What about the TGI [28] of the same molecule?
A: 79.9 µM

Q: And the TGI [29]?
A: > 100 µM

Q: And the TGI [30]?
A: > 100 µM

Q: And the TGI [31]?
A: > 100 µM

Q: What about the TGI [32] of the same molecule?
A: > 100 µM

Q: What about the TGI [33] of the same molecule?
A: > 100 µM

Q: And the TGI [34]?
A: > 100 µM

Q: What about the TGI [35] of the same molecule?
A: > 100 µM

Q: What about the TGI [36] of the same molecule?
A: > 100 µM

Q: And the TGI [37]?
A: > 100 µM

Q: What about the TGI [38] of the same molecule?
A: > 100 µM

Q: What about the TGI [39] of the same molecule?
A: > 100 µM

Q: What about the TGI [40] of the same molecule?
A: > 100 µM

Q: What about the TGI [41] of the same molecule?
A: 7.75 µM

Q: And the TGI [42]?
A: > 100 µM

Q: What about the TGI [43] of the same molecule?
A: > 100 µM

Q: And the TGI [44]?
A: > 100 µM

Q: And the TGI [45]?
A: > 100 µM

Q: What about the TGI [46] of the same molecule?
A: 5.8 µM

Q: And the TGI [47]?
A: > 100 µM

Q: What about the TGI [48] of the same molecule?
A: > 100 µM

Q: And the TGI [49]?
A: > 100 µM

Q: What about the TGI [50] of the same molecule?
A: > 100 µM

Q: What about the TGI [51] of the same molecule?
A: > 100 µM

Q: What about the TGI [52] of the same molecule?
A: 11.5 µM

Q: And the TGI [53]?
A: 75.1 µM

Q: And the TGI [54]?
A: > 100 µM

Q: And the TGI [55]?
A: > 100 µM

Q: And the TGI [56]?
A: > 100 µM

Q: What about the TGI [57] of the same molecule?
A: > 100 µM

Q: What about the TGI [58] of the same molecule?
A: > 30 µM

Q: What about the TGI [59] of the same molecule?
A: > 100 µM

Q: Which results are given for `C=CCCCCn1c2ccccc2c2c(C)c3c[n+](C)ccc3c(C)c21`?
A: TGI [1]: 1.52 µM; TGI [3]: 1.34 µM; TGI [4]: 0.608 µM; TGI [5]: 1.75 µM; TGI [6]: 1.47 µM; TGI [60]: 1.32 µM; TGI [8]: 1.28 µM; TGI [9]: 3.26 µM; TGI [10]: 39 µM; TGI [11]: 2.11 µM; TGI [61]: 2.52 µM; TGI [62]: 0.811 µM; TGI [14]: 0.783 µM; TGI [63]: 2.31 µM; TGI [15]: 1.52 µM; TGI [17]: 1.56 µM; TGI [18]: 2.02 µM; TGI [19]: 4.42 µM; TGI [21]: 19.4 µM; TGI [64]: 1.15 µM; TGI [23]: 3.2 µM; TGI [24]: 1.28 µM; TGI [25]: 2.19 µM; TGI [26]: 1.29 µM; TGI [65]: 1.41 µM; TGI [27]: 1.28 µM; TGI [28]: 1.6 µM; TGI [29]: 4.52 µM; TGI [32]: 2.6 µM; TGI [34]: 1.16 µM; TGI [35]: 12.8 µM; TGI [36]: 6.89 µM; TGI [38]: 1.08 µM; TGI [39]: 1.43 µM; TGI [45]: 1.25 µM; TGI [47]: 1.36 µM; TGI [48]: 1.14 µM; TGI [49]: 1.73 µM; TGI [50]: 1.4 µM; TGI [51]: 1.83 µM; TGI [52]: 1.1 µM; TGI [54]: 1.41 µM; TGI [55]: 1.94 µM; TGI [57]: 1.27 µM; TGI [58]: 0.921 µM

Q: Which results are given for `O=c1[nH]cnc2c1ncn2C1SC(CO)C(O)C1O` (stereo not drawn)?
A: TGI [1]: > 100 µM; TGI [2]: > 100 µM; TGI [3]: > 100 µM; TGI [4]: > 100 µM; TGI [5]: > 100 µM; TGI [6]: > 100 µM; TGI [7]: > 100 µM; TGI [8]: > 100 µM; TGI [9]: > 100 µM; TGI [10]: > 100 µM; TGI [11]: > 100 µM; TGI [12]: > 100 µM; TGI [13]: > 100 µM; TGI [14]: > 100 µM; TGI [15]: > 100 µM; TGI [16]: > 100 µM; TGI [17]: > 100 µM; TGI [18]: > 100 µM; TGI [19]: > 100 µM; TGI [20]: > 100 µM; TGI [21]: > 100 µM; TGI [22]: > 100 µM; TGI [23]: > 100 µM; TGI [24]: > 100 µM; TGI [25]: > 100 µM; TGI [26]: > 100 µM; TGI [27]: > 100 µM; TGI [28]: > 100 µM; TGI [29]: > 100 µM; TGI [30]: > 100 µM; TGI [31]: > 100 µM; TGI [32]: > 100 µM; TGI [33]: > 100 µM; TGI [34]: > 100 µM; TGI [35]: > 100 µM; TGI [36]: > 100 µM; TGI [37]: > 100 µM; TGI [38]: > 100 µM; TGI [39]: > 100 µM; TGI [40]: > 100 µM; TGI [41]: > 100 µM; TGI [42]: > 100 µM; TGI [43]: > 100 µM; TGI [44]: > 100 µM; TGI [45]: > 100 µM; TGI [46]: > 100 µM; TGI [47]: > 100 µM; TGI [48]: > 100 µM; TGI [49]: > 100 µM; TGI [50]: > 100 µM; TGI [51]: > 100 µM; TGI [52]: > 100 µM; TGI [53]: > 100 µM; TGI [54]: > 100 µM; TGI [55]: > 100 µM; TGI [56]: > 100 µM; TGI [57]: > 100 µM; TGI [58]: > 100 µM; TGI [59]: > 100 µM
